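Where inhibition never reached the appropriate level, the endpoint shown equals the highest concentration tested. Otherwise, values were interpolated linearly from a five-concentration, 48-hour dose response in 96-well plates. Definition used: TGI = concentration required for complete inhibition of growth.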
Columns and labels:
Assay in all cases: NCI-60 cell line screen, 48 h
COLO 205 colon = tested on: COLO 205 colon
TK-10 renal = tested on: TK-10 renal
SW-620 colon = tested on: SW-620 colon
NCI/ADR-RES ovarian = tested on: NCI/ADR-RES ovarian
MOLT-4 leukemia = tested on: MOLT-4 leukemia
SK-MEL-2 melanoma = tested on: SK-MEL-2 melanoma
SF-539 CNS = tested on: SF-539 CNS
DU-145 prostate = tested on: DU-145 prostate
SF-295 CNS = tested on: SF-295 CNS
SNB-75 CNS = tested on: SNB-75 CNS
SNB-19 CNS = tested on: SNB-19 CNS
KM12 colon = tested on: KM12 colon
MCF7 breast = tested on: MCF7 breast
M14 melanoma = tested on: M14 melanoma
SK-MEL-28 melanoma = tested on: SK-MEL-28 melanoma
NCI-H226 lung = tested on: NCI-H226 lung
RPMI-8226 leukemia = tested on: RPMI-8226 leukemia
UACC-62 melanoma = tested on: UACC-62 melanoma
OVCAR-5 ovarian = tested on: OVCAR-5 ovarian
CAKI-1 renal = tested on: CAKI-1 renal
EKVX NSCLC = tested on: EKVX NSCLC
OVCAR-4 ovarian = tested on: OVCAR-4 ovarian
OVCAR-8 ovarian = tested on: OVCAR-8 ovarian
SK-OV-3 ovarian = tested on: SK-OV-3 ovarian
NCI-H460 lung = tested on: NCI-H460 lung
MDA-N = tested on: MDA-N
HOP-62 NSCLC = tested on: HOP-62 NSCLC
NCI-H522 lung = tested on: NCI-H522 lung
RXF 393 renal = tested on: RXF 393 renal
IGROV1 ovarian = tested on: IGROV1 ovarian
A549 NSCLC = tested on: A549 NSCLC
UO-31 renal = tested on: UO-31 renal
SK-MEL-5 melanoma = tested on: SK-MEL-5 melanoma
HCT-116 colon = tested on: HCT-116 colon
HS 578T breast = tested on: HS 578T breast
T-47D breast = tested on: T-47D breast
HCT-15 colon = tested on: HCT-15 colon
U251 CNS = tested on: U251 CNS
MALME-3M melanoma = tested on: MALME-3M melanoma
HCC-2998 colon = tested on: HCC-2998 colon
PC-3 prostate = tested on: PC-3 prostate
SF-268 CNS = tested on: SF-268 CNS
SR leukemia = tested on: SR leukemia
786-0 renal = tested on: 786-0 renal
LOX IMVI melanoma = tested on: LOX IMVI melanoma
MDA-MB-231 breast = tested on: MDA-MB-231 breast
A498 renal = tested on: A498 renal
SN12C renal = tested on: SN12C renal
ACHN renal = tested on: ACHN renal
OVCAR-3 ovarian = tested on: OVCAR-3 ovarian
MDA-MB-435 = tested on: MDA-MB-435
UACC-257 melanoma = tested on: UACC-257 melanoma
K-562 leukemia = tested on: K-562 leukemia
NCI-H23 lung = tested on: NCI-H23 lung
HOP-92 NSCLC = tested on: HOP-92 NSCLC
BT-549 breast = tested on: BT-549 breast
HT29 colon = tested on: HT29 colon

Work on `FC1(F)[Se]C2C3CCC(C3)C2C1(F)F` (stereo not drawn) yielded a TGI (COLO 205 colon) greater than 100 µM, a TGI (TK-10 renal) greater than 100 µM and a TGI (SW-620 colon) greater than 100 µM. It also gave a TGI (NCI/ADR-RES ovarian) greater than 100 µM, a TGI (MOLT-4 leukemia) greater than 100 µM and a TGI (SK-MEL-2 melanoma) greater than 100 µM. For the same compound, the TGI (SF-539 CNS) was greater than 100 µM, the TGI (DU-145 prostate) was greater than 100 µM and the TGI (SF-295 CNS) was greater than 100 µM. It also gave a TGI (SNB-75 CNS) greater than 100 µM, a TGI (SNB-19 CNS) greater than 100 µM and a TGI (KM12 colon) greater than 100 µM. The TGI (MCF7 breast) was greater than 100 µM, the TGI (M14 melanoma) was greater than 100 µM and the TGI (SK-MEL-28 melanoma) was greater than 100 µM. It also gave a TGI (NCI-H226 lung) greater than 100 µM, a TGI (RPMI-8226 leukemia) greater than 100 µM and a TGI (UACC-62 melanoma) greater than 100 µM. The TGI (OVCAR-5 ovarian) was greater than 100 µM, the TGI (CAKI-1 renal) was greater than 100 µM and the TGI (EKVX NSCLC) was greater than 100 µM. It also gave a TGI (OVCAR-4 ovarian) greater than 100 µM, a TGI (OVCAR-8 ovarian) greater than 100 µM and a TGI (SK-OV-3 ovarian) greater than 100 µM. For the same compound, the TGI (NCI-H460 lung) was greater than 100 µM, the TGI (MDA-N) was greater than 100 µM and the TGI (HOP-62 NSCLC) was greater than 100 µM. It also gave a TGI (NCI-H522 lung) greater than 100 µM, a TGI (RXF 393 renal) greater than 100 µM and a TGI (IGROV1 ovarian) greater than 100 µM. The TGI (A549 NSCLC) was greater than 100 µM, the TGI (UO-31 renal) was greater than 100 µM and the TGI (SK-MEL-5 melanoma) was greater than 100 µM. It also gave a TGI (HCT-116 colon) greater than 100 µM, a TGI (HS 578T breast) greater than 100 µM and a TGI (T-47D breast) greater than 100 µM. For the same compound, the TGI (HCT-15 colon) was greater than 100 µM, the TGI (U251 CNS) was greater than 100 µM and the TGI (MALME-3M melanoma) was greater than 100 µM. For the same compound, the TGI (HCC-2998 colon) was greater than 100 µM, the TGI (PC-3 prostate) was greater than 100 µM and the TGI (SF-268 CNS) was greater than 100 µM. For the same compound, the TGI (SR leukemia) was greater than 100 µM, the TGI (786-0 renal) was greater than 100 µM and the TGI (LOX IMVI melanoma) was greater than 100 µM. It also gave a TGI (MDA-MB-231 breast) greater than 100 µM, a TGI (A498 renal) greater than 100 µM and a TGI (SN12C renal) greater than 100 µM. It also gave a TGI (ACHN renal) greater than 100 µM, a TGI (OVCAR-3 ovarian) greater than 100 µM and a TGI (MDA-MB-435) greater than 100 µM.
With `CC(=O)O[C@@H]1C[C@]2(C(=O)c3ccccc3)C(=O)C(=O)S[C@]12c1ccccc1` the TGI (COLO 205 colon) was greater than 100 µM, the TGI (TK-10 renal) was greater than 100 µM and the TGI (SW-620 colon) was greater than 100 µM. For the same compound, the TGI (NCI/ADR-RES ovarian) was greater than 100 µM, the TGI (MOLT-4 leukemia) was greater than 100 µM and the TGI (SK-MEL-2 melanoma) was greater than 100 µM. For the same compound, the TGI (SF-539 CNS) was 60.4 µM, the TGI (DU-145 prostate) was greater than 100 µM and the TGI (SF-295 CNS) was greater than 100 µM. It also gave a TGI (SNB-75 CNS) greater than 100 µM, a TGI (SNB-19 CNS) greater than 100 µM and a TGI (KM12 colon) greater than 100 µM. For the same compound, the TGI (MCF7 breast) was greater than 100 µM, the TGI (M14 melanoma) was greater than 100 µM and the TGI (SK-MEL-28 melanoma) was greater than 100 µM. It also gave a TGI (NCI-H226 lung) greater than 100 µM, a TGI (RPMI-8226 leukemia) of 99.4 µM and a TGI (UACC-257 melanoma) greater than 100 µM. The TGI (UACC-62 melanoma) was greater than 100 µM, the TGI (OVCAR-5 ovarian) was greater than 100 µM and the TGI (CAKI-1 renal) was greater than 100 µM. The TGI (EKVX NSCLC) was greater than 100 µM, the TGI (OVCAR-4 ovarian) was greater than 100 µM and the TGI (OVCAR-8 ovarian) was greater than 100 µM. For the same compound, the TGI (SK-OV-3 ovarian) was greater than 100 µM, the TGI (K-562 leukemia) was 85 µM and the TGI (NCI-H460 lung) was greater than 100 µM. The TGI (MDA-N) was greater than 100 µM, the TGI (HOP-62 NSCLC) was greater than 100 µM and the TGI (NCI-H23 lung) was greater than 100 µM. For the same compound, the TGI (NCI-H522 lung) was greater than 100 µM, the TGI (RXF 393 renal) was 49.9 µM and the TGI (IGROV1 ovarian) was greater than 100 µM. The TGI (A549 NSCLC) was greater than 100 µM, the TGI (UO-31 renal) was greater than 100 µM and the TGI (SK-MEL-5 melanoma) was greater than 100 µM. It also gave a TGI (HCT-116 colon) greater than 100 µM, a TGI (HS 578T breast) greater than 100 µM and a TGI (T-47D breast) of 94.3 µM. For the same compound, the TGI (HCT-15 colon) was greater than 100 µM, the TGI (U251 CNS) was greater than 100 µM and the TGI (MALME-3M melanoma) was greater than 100 µM. It also gave a TGI (HCC-2998 colon) of 75.1 µM, a TGI (HOP-92 NSCLC) greater than 100 µM and a TGI (BT-549 breast) greater than 100 µM. The TGI (PC-3 prostate) was greater than 100 µM, the TGI (SF-268 CNS) was greater than 100 µM and the TGI (SR leukemia) was 83.1 µM. For the same compound, the TGI (786-0 renal) was greater than 100 µM, the TGI (LOX IMVI melanoma) was greater than 100 µM and the TGI (MDA-MB-231 breast) was greater than 100 µM. It also gave a TGI (A498 renal) greater than 100 µM, a TGI (SN12C renal) greater than 100 µM and a TGI (HT29 colon) greater than 100 µM. The TGI (ACHN renal) was greater than 100 µM, the TGI (OVCAR-3 ovarian) was greater than 100 µM and the TGI (MDA-MB-435) was greater than 100 µM.
